Here are results for 17 compounds from ChEMBL document CHEMBL1147409, “3-(4-Aminobutyn-1-yl)pyridines: binding at alpha 4 beta 2 nicotinic cholinergic receptors” (Bioorg Med Chem Lett, 2004).

Where only a bound is given, the exact number is not on record here.

Sequence of Neuronal acetylcholine receptor; alpha4/beta2 (P17787 whole entry): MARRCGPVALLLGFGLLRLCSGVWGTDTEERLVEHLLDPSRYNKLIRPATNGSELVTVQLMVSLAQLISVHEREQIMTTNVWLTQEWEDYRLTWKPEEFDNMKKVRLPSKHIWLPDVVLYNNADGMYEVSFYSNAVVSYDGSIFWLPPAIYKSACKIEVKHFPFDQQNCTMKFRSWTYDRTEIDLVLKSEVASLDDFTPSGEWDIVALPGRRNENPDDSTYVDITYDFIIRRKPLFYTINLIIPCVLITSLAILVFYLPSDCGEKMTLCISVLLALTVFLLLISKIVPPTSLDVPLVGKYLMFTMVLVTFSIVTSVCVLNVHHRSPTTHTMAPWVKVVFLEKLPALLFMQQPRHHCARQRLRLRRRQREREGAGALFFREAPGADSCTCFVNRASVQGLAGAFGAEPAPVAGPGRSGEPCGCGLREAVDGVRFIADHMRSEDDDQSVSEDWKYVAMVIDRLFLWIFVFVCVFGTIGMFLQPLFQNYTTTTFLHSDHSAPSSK
Sequence of Neuronal acetylcholine receptor; alpha4/beta2 (P43681 whole entry): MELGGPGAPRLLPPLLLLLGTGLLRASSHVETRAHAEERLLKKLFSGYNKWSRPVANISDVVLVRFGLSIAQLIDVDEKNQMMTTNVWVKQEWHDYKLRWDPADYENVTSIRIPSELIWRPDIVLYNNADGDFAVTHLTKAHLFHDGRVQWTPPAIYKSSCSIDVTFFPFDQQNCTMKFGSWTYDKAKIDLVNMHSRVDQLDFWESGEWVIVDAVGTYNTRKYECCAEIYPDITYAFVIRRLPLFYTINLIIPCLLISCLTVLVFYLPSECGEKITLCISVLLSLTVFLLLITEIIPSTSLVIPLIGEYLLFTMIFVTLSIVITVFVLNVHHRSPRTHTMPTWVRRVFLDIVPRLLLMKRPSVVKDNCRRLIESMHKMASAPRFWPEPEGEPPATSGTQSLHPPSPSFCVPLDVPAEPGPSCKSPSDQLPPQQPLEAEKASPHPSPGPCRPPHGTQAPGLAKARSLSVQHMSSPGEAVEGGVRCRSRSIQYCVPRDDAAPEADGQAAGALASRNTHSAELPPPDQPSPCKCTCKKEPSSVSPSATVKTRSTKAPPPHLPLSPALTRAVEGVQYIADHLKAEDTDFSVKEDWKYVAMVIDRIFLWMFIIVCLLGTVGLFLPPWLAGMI

The first assay addresses Neuronal acetylcholine receptor; alpha4/beta2 (Homo sapiens, UniProt P17787+P43681). Briefly: Binding affinity towards nicotinic acetylcholine receptor alpha4-beta2. It is filed as protein-complex assay.
In the case of `CNCC#Cc1cccnc1`, the Ki is 2290 nM.
In the case of `CNC/C=C/c1cccnc1`, the Ki was approximately 6000 nM.
On the same count and under the same terms, the same measure for `CNCC/C=C/c1cccnc1` [RIVANICLINE]: 25 nM.

A further assay deals with Neuronal acetylcholine receptor alpha4/beta2 (Rattus norvegicus). The assay can be described thus: Binding affinity towards nicotinic acetylcholine receptor alpha4-beta2 from rat brain homogenates.
Turning to `CNCCOc1cccnc1`, the affinity corresponds to a Ki of 35 nM.
On the same count and under the same terms, the same measure for `CNCCC#Cc1ccc(OC)nc1`: more than 10000 nM; for `c1cncc(CN2CCCC2)c1`: 30 nM.
`CN(C)CCC#Cc1cccnc1`: the Ki came out at 510 nM.
Still for that read-out and setting: to `C[N+](C)(C)CCC#Cc1cccnc1` belongs 470 nM; to `C(#Cc1cccnc1)CCN1CCCC1`, more than 10000 nM.
The same measure, in the same setting: the same measure for `c1cncc(OCCN2CCCC2)c1`: 212 nM; for `CN(C)Cc1cccnc1`: 540 nM; for `C[N+](C)(C)CCOc1cccnc1`: 0.5 nM.
Same read-out and setting: the same measure for `CNCCC#Cc1ccc(Cl)nc1`: 154 nM; for `C[N+](C)(C)Cc1cccnc1`: 110 nM.
Compound `CNCc1cccnc1` had a Ki of more than 10000 nM.
On the same count and under the same terms, to `CCN(C)Cc1cccnc1` belongs 28 nM; to `CN(C)CCOc1cccnc1`, 21 nM.
